Reference: patent US8188073B2, “Benzoxazines and related nitrogen-containing heterobicyclic compounds useful as mineralocorticoid receptor modulating agents” (Mitsubishi Tanabe Pharma Corporation, priority 2006, dated 2012)
pIC50, pKi: −log10 of the molar value.

These compounds were tested against T1, Aldosterone Receptor (Rattus norvegicus, UniProt P22199) (assay: Aldosterone Receptor Binding Assay (Experiment 1; kidney cytosol fraction, [3H]aldosterone)). Conditions: [3H]aldosterone ca. 2 nM, 4° C. overnight, Ki by Cheng and Prusoff's equation.
T1 construct: centrifuged at 100,000×g for 1 hour to give a supernatant as a kidney cytosol fraction; from tissue; host or cells: kidney cytosol of adrenalectomised Sprague-Dawley male rats
T1 sequence (P22199 1-981): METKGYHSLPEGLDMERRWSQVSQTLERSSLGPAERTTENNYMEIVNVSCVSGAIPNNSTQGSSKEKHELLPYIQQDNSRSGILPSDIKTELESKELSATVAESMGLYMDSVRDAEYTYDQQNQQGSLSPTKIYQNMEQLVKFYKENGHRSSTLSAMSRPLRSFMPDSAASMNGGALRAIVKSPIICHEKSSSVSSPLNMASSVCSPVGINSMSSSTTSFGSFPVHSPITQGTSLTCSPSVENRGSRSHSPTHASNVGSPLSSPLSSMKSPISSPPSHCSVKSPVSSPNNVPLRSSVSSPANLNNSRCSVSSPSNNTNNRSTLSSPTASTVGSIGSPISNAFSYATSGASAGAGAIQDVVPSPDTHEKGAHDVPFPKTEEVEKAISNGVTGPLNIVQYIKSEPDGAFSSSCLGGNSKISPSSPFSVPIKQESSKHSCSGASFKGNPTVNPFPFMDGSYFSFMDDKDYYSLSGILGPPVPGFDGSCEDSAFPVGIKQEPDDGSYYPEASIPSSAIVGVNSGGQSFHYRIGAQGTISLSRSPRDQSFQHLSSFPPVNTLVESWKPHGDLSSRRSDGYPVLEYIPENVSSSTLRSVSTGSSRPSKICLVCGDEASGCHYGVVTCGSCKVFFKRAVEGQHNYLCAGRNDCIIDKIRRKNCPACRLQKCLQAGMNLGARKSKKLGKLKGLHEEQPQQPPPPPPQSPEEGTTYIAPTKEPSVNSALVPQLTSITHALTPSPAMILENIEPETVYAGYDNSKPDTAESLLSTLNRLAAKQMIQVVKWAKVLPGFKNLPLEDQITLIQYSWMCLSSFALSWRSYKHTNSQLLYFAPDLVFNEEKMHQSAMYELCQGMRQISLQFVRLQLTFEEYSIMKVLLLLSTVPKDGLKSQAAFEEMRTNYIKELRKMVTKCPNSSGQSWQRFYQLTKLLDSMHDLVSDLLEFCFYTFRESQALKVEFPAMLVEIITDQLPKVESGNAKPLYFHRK
Parameters: species or system Sprague-Dawley male rats
Method: Experiment 1 [Aldosterone Receptor Binding Assay]
(1) Preparation of Kidney Cytosol Fraction:
Kidneys derived from post-adrenalectomy Sprague-Dawley male rats (7 weeks old) were homogenized in the following buffer solution and the homogenate was centrifuged at 100,000×g for 1 hour to give a supernatant as a kidney cytosol fraction (protein concentration: 15 mg/mL) for the present biding assay.
Composition of Buffer solution: 50 mM Tris-HCl (pH 7.5), 250 mM Sucrose, 50 mM Potassium chloride, 3 mM Magnesium chloride, 20 mM Sodium molybdate and 1 mM Mercaptoethanol
A mixture of 5 μL of a solution of each test compound in dimethylsulfoxide, 200 μL of kidney cytosol fraction, 50 μL of physiological saline (or 50 μL of unlabeled aldosterone solution (final concentration: 1 μM) and (50 μL of [^3H]aldosterone solution (ca. 2 nM) was incubated in a test tube at 4° C. overnight. Thereto was added 100 μL of dextrane-coated charcoal/10 mM Tris-HCl buffer and the mixture was incubated at 4° C. for 30 minutes. The reaction mixture was centrifuged at 3000 rpm for 10 minutes and to the supernatant (150 μL) was added 5 mL of a scintillator (Clearsol II, Nakarai Tesque). The radioactivity was measured by a liquid scintilation counter (TRI CARB 2200CA, Packard). […] Moreover, the dissociation constant (Ki) of each test compound was calculated on Cheng and Prusoff's equation (Ki=IC50/(1+[L]/Kd), wherein [L] is [^3H]aldosterone concentration and Kd is the affinity constant of aldosterone).
With `CS(=O)(=O)Nc1ccc2c(c1)OC(c1ccccc1)C(=O)N2c1ccc(Cl)cc1` (stereo not drawn) [Example 6] the pKi was over 6.30. `CC1(C)Oc2cc(NS(C)(=O)=O)ccc2N(c2ccc(F)cc2)C1=O` [Example 9, N-[4-(4-fluorophenyl)-2,2-dimethyl-3-oxo-3,4-dihydro-2H-1,4-benzoxazin-7-yl]methanesulfonamide] was tested, and the pKi was over 6.30. Work on `CC1(C)Oc2cc(NS(C)(=O)=O)ccc2N(c2ccc(F)c(F)c2)C1=O` [Example 10] yielded a pKi of over 6.30. `CC1(C)Oc2cc(NS(C)(=O)=O)ccc2N(c2ccc(Cl)cc2)C1=O` [Example 11] showed a pKi of over 6.30. `CC1(C)Oc2cc(NS(C)(=O)=O)ccc2N(Cc2ccccc2)C1=O` [Example 19] showed a pKi of over 6.30. `CS(=O)(=O)Nc1ccc2c(c1)OC1(CCC1)C(=O)N2c1ccc(F)cc1` [Example 37] showed a pKi of 6.00 to 6.30. `CC1(C)Nc2cc(NS(C)(=O)=O)ccc2N(c2ccc(F)cc2)C1=O` [Example 45, N-[1-(4-fluorophenyl)-3,3-dimethyl-2-oxo-1,2,3,4-tetrahydroquinoxalin-6-yl]methanesulfonamide] showed a pKi of over 6.30. For `CC1(C)Oc2cc(NS(C)(=O)=O)ccc2N(c2ccc(F)cc2)C1=S` [Example 46, N-[4-(4-fluorophenyl)-2,2-dimethyl-3-thioxo-3,4-dihydro-2H-1,4-benzoxazin-7-yl]methanesulfonamide], the pKi was over 6.30. `Cc1cc(F)ccc1N1C(=O)C(C)(C)Oc2cc(NS(C)(=O)=O)ccc21` [Example 50] gave a pKi of over 6.30. In the case of `COc1cccc(N2C(=O)C(C)(C)Oc3cc(NS(C)(=O)=O)ccc32)c1` [Example 53], the pKi was over 6.30. `COc1cc(N2C(=O)C(C)(C)Oc3cc(NS(C)(=O)=O)ccc32)ccc1F` [Example 55, N-[4-(4-Fluoro-3-methoxyphenyl)-2,2-dimethyl-3-oxo-3,4-dihydro-2H-1,4-benzoxazin-7-yl]methanesulfonamide] showed a pKi of over 6.30. In the case of `CC1(C)Oc2cc(NS(C)(=O)=O)ccc2N(c2ccncc2)C1=O` [Example 64], the pKi was over 6.30. In the case of `CS(=O)(=O)Nc1ccc2c(c1)OCC(=O)N2c1ccc(F)c(Cl)c1` [Example 67], the pKi was 6.00 to 6.30. `COc1cc2c(cc1NS(C)(=O)=O)OC(C)(C)C(=O)N2c1ccc(F)cc1` [Example 101, N-[4-(4-Fluorophenyl)-6-methoxy-2,2-dimethyl-3-oxo-3,4-dihydro-2H-1,4-benzoxazin-7-yl]methanesulfonamide] gave a pKi of over 6.30.

Each compound was assayed against T2, androgen receptors (AR) (Rattus norvegicus, UniProt P15207) (assay: binding assay using androgen receptors derived from rat prostate and 3H-methyltrienorone). Conditions: AR derived from rat prostate.
T2 construct: androgen receptors (AR) derived form rat prostate; from tissue; host or cells: rat prostate
T2 sequence (P15207 1-902): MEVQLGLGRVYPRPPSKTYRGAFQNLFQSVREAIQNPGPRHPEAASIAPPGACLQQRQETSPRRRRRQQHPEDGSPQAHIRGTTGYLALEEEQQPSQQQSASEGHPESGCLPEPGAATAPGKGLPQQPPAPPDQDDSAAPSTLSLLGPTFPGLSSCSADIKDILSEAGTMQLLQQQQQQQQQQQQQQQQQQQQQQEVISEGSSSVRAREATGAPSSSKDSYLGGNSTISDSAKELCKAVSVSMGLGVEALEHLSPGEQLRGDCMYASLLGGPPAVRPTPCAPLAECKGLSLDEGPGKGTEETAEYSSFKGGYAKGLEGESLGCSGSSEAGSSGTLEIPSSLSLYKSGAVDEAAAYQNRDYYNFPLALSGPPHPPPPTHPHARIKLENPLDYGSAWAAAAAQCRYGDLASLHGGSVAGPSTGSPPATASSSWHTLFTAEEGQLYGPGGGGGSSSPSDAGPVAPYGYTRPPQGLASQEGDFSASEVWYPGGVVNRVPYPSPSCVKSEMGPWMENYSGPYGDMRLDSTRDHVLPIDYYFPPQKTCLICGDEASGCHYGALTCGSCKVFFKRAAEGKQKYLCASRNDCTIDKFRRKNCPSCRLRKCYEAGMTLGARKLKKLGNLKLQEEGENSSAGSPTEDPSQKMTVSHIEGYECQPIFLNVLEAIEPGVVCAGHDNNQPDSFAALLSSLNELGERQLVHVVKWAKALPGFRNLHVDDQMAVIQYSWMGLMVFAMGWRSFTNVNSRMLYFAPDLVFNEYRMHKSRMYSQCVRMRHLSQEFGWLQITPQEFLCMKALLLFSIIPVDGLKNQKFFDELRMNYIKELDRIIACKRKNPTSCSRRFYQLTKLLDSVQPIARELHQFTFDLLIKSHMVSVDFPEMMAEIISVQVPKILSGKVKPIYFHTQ
Method: (§1) Each biding assay was conducted in a similar manner as the procedure described in The Journal of Pharmacology and Experimental Therapeutics, 1987; 240:p. 650-656.
Compound `CC1(C)Oc2cc(N)ccc2N(c2ccc(F)c(F)c2)C1=O` [7-amino-4-(3,4-difluorophenyl)-2,2-dimethyl-2H-1,4-benzoxizin-3(4H)-one] has a pKi of over 5.00.

What follows are compounds tested against T3, mineralocorticoid receptors (MR) (Rattus norvegicus, UniProt P22199) (assay: binding assay using rat MR and 3H-aldosterone). Conditions: MR derived from rat kidney.
T3 construct: mineralocorticoid receptors (MR) derived form rat kidney; from tissue; host or cells: rat kidney
T3 sequence (P22199 1-981): T1 sequence (P22199 1-981)
Method: as §1
For example, in a binding assay using rat MR and ^3H-aldosterone, which was conducted in accordance with a manner as described in The Journal of Pharmacology and Experimental Therapeutics, 1987; 240: p. […] Therefore, the compound [I] of the present invention is useful as a medicament for prevention or treatment of various diseases associated with the receptor and/or aldosterone, such as cardiovascular diseases including hypertension and heart failure.
With `CC1(C)Oc2cc([N+](=O)[O-])c(Cl)cc2N(c2ccc(F)cc2)C1=O` [6-chloro-4-(4-fluorophenyl)-2,2-dimethyl-7-nitro-2H-1,4-benzoxizin-3(4H)-one] the pKi was over 5.00.

Same assay, conditions: rat MR and 3H-aldosterone
In the case of `CC1(C)Oc2cc(NS(C)(=O)=O)ccc2N(c2ccccc2)C1=O` [N-(2,2-dimethyl-3-oxo-4-phenyl-3,4-dihydro-2H-1,4-benzoxazin-7-yl)methanesulfonamide], the pIC50 was over 5.00. For `CS(=O)(=O)Nc1ccc2c(c1)OC(c1ccccc1)C(=O)N2c1ccccc1` (stereo not drawn) [N-(3-oxo-2,4-diphenyl-3,4-dihydro-2H-1,4-benzoxazin-7-yl)methane sulfonamide], the pIC50 was over 5.00.

Each compound was assayed against T4, glucocorticoid receptors (GR) (Rattus norvegicus, UniProt P06536) (assay: binding assay using glucocorticoid receptors derived from rat liver and 3H-dexamethazone). Conditions: GR derived from rat liver.
T4 construct: glucocorticoid receptors (GR) derived form rat liver; from tissue; host or cells: rat liver
T4 sequence (P06536 1-795): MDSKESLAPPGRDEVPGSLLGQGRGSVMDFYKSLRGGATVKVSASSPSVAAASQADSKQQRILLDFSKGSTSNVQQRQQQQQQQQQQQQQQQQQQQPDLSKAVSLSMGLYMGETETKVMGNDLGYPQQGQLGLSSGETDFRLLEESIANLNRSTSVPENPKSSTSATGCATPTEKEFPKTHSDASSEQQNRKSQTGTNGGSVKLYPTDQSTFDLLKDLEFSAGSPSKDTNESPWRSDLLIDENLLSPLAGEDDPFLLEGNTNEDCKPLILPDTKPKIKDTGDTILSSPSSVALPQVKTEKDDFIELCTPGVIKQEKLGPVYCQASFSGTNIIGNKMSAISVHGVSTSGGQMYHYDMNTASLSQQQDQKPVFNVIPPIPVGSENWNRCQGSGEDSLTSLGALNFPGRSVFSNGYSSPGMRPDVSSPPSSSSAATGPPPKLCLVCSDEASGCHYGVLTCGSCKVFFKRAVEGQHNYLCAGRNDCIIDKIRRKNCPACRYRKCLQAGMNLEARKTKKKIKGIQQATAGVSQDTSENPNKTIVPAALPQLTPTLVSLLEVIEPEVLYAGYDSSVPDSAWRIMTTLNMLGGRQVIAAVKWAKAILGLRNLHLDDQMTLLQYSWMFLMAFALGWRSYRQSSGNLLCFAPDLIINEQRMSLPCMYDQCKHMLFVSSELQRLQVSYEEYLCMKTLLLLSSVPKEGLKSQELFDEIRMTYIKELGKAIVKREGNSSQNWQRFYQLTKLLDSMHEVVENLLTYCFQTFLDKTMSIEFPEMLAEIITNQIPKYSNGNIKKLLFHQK
Method: as §1
`Cc1ccc(N2C(=O)C(C)(C)Oc3cc([N+](=O)[O-])ccc32)cc1C(F)(F)F` showed a pKi of over 5.00. Work on `Cc1cc(N2C(=O)C(C)(C)Oc3cc([N+](=O)[O-])ccc32)ccc1F` [4-(4-fluoro-3-methylphenyl)-2,2-dimethyl-7-nitro-2H-1,4-benzoxizin-3 (4H)-one] yielded a pKi of over 5.00. `O=C1C(c2ccccc2)Oc2cc([N+](=O)[O-])ccc2N1c1ccc(F)cc1` (stereo not drawn) [4-(4-fluorophenyl)-7-nitro-2-phenyl-2H-1,4-benzoxizin-3(4H)-one] was tested, and the pKi was over 5.00.
